From patent US7098204B2 (C.N.R.S., priority 1999, dated 2006)
In brackets after ≈: the same amount, converted by molar mass. Like-named read-outs stand apart in the source and are kept apart here.

Columns and labels:
CDK1/cyclin B = CDK1/cyclin B kinase assay (histone H1); type: biochemical, starfish (Marthasterias glacialis); conditions: 15 μM ATP; −(x) = no effect at highest concentration x tested
Description: (§1) Kinases activities were assayed in Buffer A or C (unless otherwise stated), at 30° C., at a final ATP concentration of 15 μM. Blank values were subtracted and activities calculated as pmoles of phosphate incorporated for a 10 min. incubation (usually expressed in % of the maximal activity, i.e. without inhibitors). Controls were performed with appropriate dilutions of Me2SO. In some cases phosphorylation of the substrate was assessed by autoradiography after SDS-PAGE. IC50 values were estimated from the dose-response curves. • CDK1/cyclin B was extracted in homogenisation buffer from M phase starfish (Marthasterias glacialis) oocytes and purified by affinity chromatography on p9^CKShs1-Sepharose beads, from which it was eluted by free p9^CKShs1 as described. The kinase activity was assayed in buffer C, with 1 mg histone H1/ml, in the presence of 15 μM [γ-^32P] ATP (3,000 Ci/mmol; 1 mCi/ml) in a final volume of 30 μl. After 10 min. incubation at 30° C., 25 μl aliquots of supernatant were spotted onto 2.5×3 cm pieces of Whatman P81 phosphocellulose paper, and, 20 sec. later, the filters were washed five times (for at least 5 min. each time) in a solution of 10 ml phosphoric acid/liter of water. The wet filters were counted in the presence of 1 ml ACS (Amersham) scintillation fluid. • GSK-3β was either purified from rabbit muscle or expressed in and purified from insect Sf9 cells. It was assayed, following a 1/100 dilution in 1 mg BSA/ml 10 mM DTT, with 5 μl 40 μM GS-1 peptide as a substrate, in buffer A, in the presence of 15 μM [γ-^32P] ATP (3,000 Ci/mmol; 1 mCi/ml) in a final volume of 30 μl. […] Its activity was assayed in buffer C as described for CDK1/cyclin B. • CDK2/cyclin A, CDK2/cyclin E, CDK3/cyclin E, CDK4/cyclin D1, CDK6/cyclin D2, His-tagged erk1 and erk2, protein kinase C isoforms, the catalytic subunit of cAMP-dependent protein kinase, cGMP-dependent protein kinase, Myosin light chain kinase, casein kinases 1 & 2, ASK-γ (a plant homologue of GSK-3), insulin receptor tyrosine kinase domain (CIRK-41), c-raf, MAPKK, c-jun N terminal kinase (obtained from Promega), c-src kinase and v-abl kinase were assayed as described. Electrophoresis and Western Blotting

cdk5/p25 = cdk5/p25 (Homo sapiens, UniProt Q00535); assay: CDK5/p25 kinase assay; type: biochemical; conditions: for IC50: 15 μM ATP, −(x) = no effect at highest concentration x tested
Description: as §1

GSK3-β = molecular target: T1, GSK3-β (UniProt P18266); assay: GSK-3β kinase assay (GS-1 peptide); type: biochemical, rabbit
T1 construct: GSK-3β was either purified from rabbit muscle or expressed in and purified from insect Sf9 cells [18]
Description: as §1

casein kinase 1 = casein kinase 1 assay; type: biochemical; conditions: 15 μM ATP; −(x) = no effect at highest concentration x tested; read-out: IC50 casein kinase 1 (CK 1)
Description: as §1

ovary, OVCAR-3 = assay: Human cancer cell line OVCAR-3 proliferation; type: cell-based
brain, SF-295 = assay: Human cancer cell line SF-295 proliferation; type: cell-based
kidney, A498 = assay: Human cancer cell line A498 proliferation; type: cell-based
lung, H460 = assay: Human cancer cell line H460 proliferation; type: cell-based; conditions: NCI-H460
colon, KM20L2 = assay: Human cancer cell line KM20L2 proliferation; type: cell-based; conditions: KM-20L2
melanoma, SK-MEL-5 = assay: Human cancer cell line SK-MEL-5 proliferation; type: cell-based
[1] = tested on: GSK-3β like activity in Sf9 cells; assay: Tau (htau23) phosphorylation in Sf9 cells, Western blotting; type: cell-based; conditions: 50 μM, 5 hrs, Sf9 cells expressing htau23
P388 cell line = assay: Inhibition of cell proliferation, P388; type: cell-based
[2] = 15 μM ATP, −(x) = no effect at highest concentration x tested, read-out: IC50 GSK3-β

Chain of cdk5/p25 (Q00535 whole entry, species assumed): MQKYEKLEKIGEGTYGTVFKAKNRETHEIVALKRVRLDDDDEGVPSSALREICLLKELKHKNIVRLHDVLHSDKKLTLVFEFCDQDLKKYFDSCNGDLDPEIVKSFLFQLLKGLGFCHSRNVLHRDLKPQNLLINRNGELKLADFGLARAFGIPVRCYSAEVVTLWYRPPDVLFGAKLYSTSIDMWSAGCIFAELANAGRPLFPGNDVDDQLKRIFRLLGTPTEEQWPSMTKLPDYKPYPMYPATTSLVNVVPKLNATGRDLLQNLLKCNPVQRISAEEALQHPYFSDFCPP
Chain of cdk5/p25 (Q15078 99-307 partner limits assumed, species assumed): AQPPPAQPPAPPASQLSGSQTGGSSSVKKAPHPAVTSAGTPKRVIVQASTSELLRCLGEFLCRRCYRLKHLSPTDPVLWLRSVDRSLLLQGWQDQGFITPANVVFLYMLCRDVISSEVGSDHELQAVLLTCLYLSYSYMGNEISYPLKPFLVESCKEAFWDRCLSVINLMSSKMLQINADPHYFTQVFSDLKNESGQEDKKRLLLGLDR

IC50 (CDK1/cyclin B) [µM] | IC50 (cdk5/p25) [µM] | IC50 (GSK3-β; [2]) [µM] | IC50 (casein kinase 1) [µM] | Molecule | also measured
> 100 | 4 | 12 | > 100 | Nc1ncc(/C=C/CNC(=O)c2cc(Br)c[nH]2)[nH]1 [hymenidin] | kinase selectivity among CDK1, CDK5, GSK-3β, CK1 (cdk5/p25; in words): selective for CDK5
> 100 | > 100 | > 100 | > 100 | NC1=NC(=O)/C(=C/CCNC(=O)c2cc(Br)c(Br)[nH]2)N1 [dispacamide A] | 
> 10 | > 100 | > 10 | > 10 | O=C1N[C@H]2n3c(cc(Br)c3Br)C(=O)N3CCC[C@]23N1 [dibromophakellstatin] | IC50 (ovary, OVCAR-3): 0.46 µg/mL (≈ 1.18 µM); IC50 (brain, SF-295): 1.5 µg/mL (≈ 3.85 µM); IC50 (kidney, A498): 0.21 µg/mL (≈ 0.538 µM); IC50 (lung, H460): 0.62 µg/mL (≈ 1.59 µM); IC50 (colon, KM20L2): 0.11 µg/mL (≈ 0.282 µM); IC50 (melanoma, SK-MEL-5): 0.11 µg/mL (≈ 0.282 µM)
 |  |  |  | NC1=N[C@H]2n3c(cc(Br)c3Br)C(=O)N3CCC[C@]23N1 [dibromophakellin, reference compound] | IC50 (ovary, OVCAR-3): 15.7 µg/mL (≈ 40.4 µM); IC50 (brain, SF-295): 18.8 µg/mL (≈ 48.3 µM); IC50 (kidney, A498): 17.8 µg/mL (≈ 45.8 µM); IC50 (lung, H460): 22 µg/mL (≈ 56.5 µM); IC50 (colon, KM20L2): 20.1 µg/mL (≈ 51.7 µM); IC50 (melanoma, SK-MEL-5): 17 µg/mL (≈ 43.7 µM)
70 | > 100 | > 100 | > 100 | Nc1ncc(C2=CCNC(=O)c3[nH]c(Br)c(Br)c32)[nH]1 [stevensine/odiline] | 
 |  |  |  | CN1CC[C@H](c2c(O)cc(O)c3c(=O)cc(-c4ccccc4Cl)oc23)[C@H](O)C1 [flavopiridol, reference compound] | AT100 signal (tau phosphorylated at T212 and S214) [1]: disappearance of AT100 signal
> 100 | > 100 |  | > 100 | NC1=N[C@H]2c3c([nH]c(Br)c3Br)C(=O)N3CCC[C@]23N1 [dibromocantharelline] | IC50 (GSK3-β; read-out: IC50 towards GSK-3β): 3 µM
> 100 | > 100 | > 100 | > 100 | Nc1nc([C@H]2[C@H](CNC(=O)c3cc(Br)c[nH]3)[C@@H](CNC(=O)c3cc(Br)c[nH]3)[C@@H]2c2c[nH]c(N)n2)c[nH]1 [sceptrin] | 
0.13 | 1.5 | 0.16 | 0.55 | diacetylhymenialdisine | IC50 on P388 cell line (P388 cell line): 0.56 µg/mL; IC50 (P388 cell line; read-out: IC50 on P388 cell line in μM (parentheses)): 1.7 µM
1.3 | 3 | 0.6 | 1.1 | diacetyldebromohymenialdisine | 
> 100 | 50 | 20 | > 100 | Nc1ncc(/C=C/CNC(=O)c2cc(Br)c(Br)[nH]2)[nH]1 [oroïdin] | 
4 | 7 | 3 | 4.5 | O=C1NC(=O)/C(=C2/CCNC(=O)c3[nH]c(Br)cc32)N1 [axinohydantoin] | 
> 100 | > 100 |  | > 100 | Nc1ncc(/C=C/CNC(=O)c2ccc[nH]2)[nH]1 [clathrodin] | 

Molecule | IC50 (CDK1/cyclin B) [µM] | IC50 (cdk5/p25) [µM] | IC50 (GSK3-β; [2]) [µM] | IC50 (casein kinase 1) [µM] | also measured
agelastatin A | > 100 | > 100 | 12 | > 100 | 
O=C([O-])c1ccc[n+](CCOC(=O)c2cc(Br)c[nH]2)c1 [agelongine] | > 100 | > 100 | > 100 | > 100 | 
Nc1ncc(C2c3nc(N)[nH]c3CC(CNC(=O)c3cc(Br)c(Br)[nH]3)C2CNC(=O)c2cc(Br)c(Br)[nH]2)[nH]1 (centres unmarked) [dibromoageliferin] | > 100 | > 100 | 11 | > 100 | 
